Measured values: PMC8347148, “An Evaluation of Human Induced Pluripotent Stem Cells to Test for Cardiac Developmental Toxicity” (International Journal of Molecular Sciences, 2021)

Key:
[1] = test system: TBX5 mRNA expression; test: day 10 qPCR of TBX5 in differentiating hiPSCs; type: cell-based, human; details: for hiPSCs (d10 TBX5) ID50: day 10, 50% reduction in TBX5 gene expression vs control
Description: One of the main critiques of traditional developmental toxicity evaluations is the length of time and technical training required to successfully complete assays. As such, a shorter, quantifiable, and correct in vitro embryotoxicity assessment could improve throughput without sacrificing accuracy. Given the correct predictions achieved with contraction counts described above, we next investigated if our approach could be modified with a shorter, qPCR-based endpoint to determine differentiation inhibition. Here, we selected two cardiogenesis-specific transcription factors, TBX5 and MEF2c, to determine if the adverse differentiation outcomes would already be detectable as changes in TBX5 and MEF2c expression on day 10 of differentiation.
RNA was extracted from three wells per biological replicate using the protocol from NucleoSpin RNA II kit (Macherey-Nagel, Mountain View, CA, USA) and pooled. RNA from three independent differentiations was then quantified using a NanoDrop® 1000 spectrophotometer (ThermoFisher Scientific, Grand Island, NY, USA) at 260 nm. 25 ng of total RNA was used as a template for cDNA synthesis with a mastermix including 5 µL 5× reaction buffer, 1.25 µL 10 mM dNTPs, 1.25 µL 400 U/µL RNase inhibitor, 0.1 µL 200 U/µL reverse transcriptase, 0.1 µL 3 µg/µL random primer, and 1.5 µL DEPC H2O for a total of 25 µL per reaction. 25 ng cDNA transcripts were used for quantitative polymerase chain reaction (qPCR) SYBR green technology on the MyiQ cycler (Bio-Rad). The reactions were setup for 10 min of denaturing at 94 °C (initial), followed by 40 cycles of denaturing at 94 °C, and annealing at 60 °C each 45 s. The n-fold expression in target samples was calculated with the ΔΔCT method by standardizing Ct values to GAPDH expression. Primer sequences for human GAPDH were 5′-[…]-3′ and 5′-[…]-3′. Target genes were cardiogenic markers TBX5 and MEF2c. Primer sequences for human TBX5 were 5′-[…]-3′ and 5′-[…]-3′ and primer sequences for human MEF2c were 5′-[…]-3′ and 5′-[…]-3′ [27].
Half-maximal inhibitory compound doses of differentiation (ID50) and cytotoxicity (IC50) were determined from concentration-response curves using GraphPad Prism.

[2] = test system: mESCs; set-up: method as in PMID 14761682, PMID 21720311; details: EST prediction model; cited from earlier work

Compound	concentrations with dramatically reduced d10 TBX5 mRNA expression ([1]; day 10)	hiPSCs (d10 TBX5) ID50 [1] [µg/mL]	mESC Biostatistical Embryotoxicity Classification [2]	concentrations with significant upregulation in TBX5 mRNA expression ([1]; day 10)	effect on TBX5 mRNA expression ([1]; day 10)
O=c1[nH]cc(F)c(=O)[nH]1 [5-Fluorouracil, 5-fluorouracil]	above 1 × 10^−4 μg/mL	0.000179	Strongly embryotoxic		
CC1=C(/C=C/C(C)=C/C=C/C(C)=C/C(=O)O)C(C)(C)CCC1 [All-Trans Retinoic Acid, all-trans retinoic acid]		3.28e-06	Strongly embryotoxic	lower than 1 × 10^−6 μg/mL	
CC1(C)S[C@@H]2[C@H](NC(=O)Cc3ccccc3)C(=O)N2[C@H]1C(=O)O [Penicillin G, penicillin G]		>1000	Not embryotoxic		did not significantly impact TBX5 mRNA expression
